Read-outs that look alike come from different tables or passages of the source.
Columns and labels:
LNCaP cells [1] = assay: cell surface binding and internalization in LNCaP cells; assay type: cell-based, human; details: for Internalization [%]: normalized to reference ([125I]I-BA)KuE, corrected for unspecific binding, c = 0.2 nM for 68Ga and 0.5 nM for 177Lu compounds, 37°C, 1 h, 125,000 cells/well, mean ± SD (n = 3); for internalized fraction of total applied activity: 60 min incubation, not normalized, 0.2 nM (68Ga) or 0.5 nM (177Lu)
Method: One day (24h ± 2h) prior to all experiments with LNCaP cells, the cultivated cells were harvested using a mixture of trypsin/ethylendiaminetetraacetate (0.05%/ 0.02%) and phosphate buffered saline and centrifuged. After centrifugation, the supernatant was disposed and the cell pellet resuspended in culture medium. Afterwards, cells were counted with a hemocytometer (Neubauer) and seeded in 24-well plates. […]
To differentiate between the cell surface bound and internalized fraction, a PMPA-wash (1.0 µM) was performed to remove the specifically bound radioligand.

PSMA [2] = biological target: T1, PSMA (Homo sapiens, UniProt Q04609); details: PSMA I&T (18), values taken from a previous publication (Weineisen 2014), same binding assay; cited from earlier work
T1 construct: PSMA-positive LNCAP cells (200265; Cell Lines Service GmbH) were cultivated; host or cells: LNCaP human prostate cancer cells
T1 sequence (Q04609 whole entry): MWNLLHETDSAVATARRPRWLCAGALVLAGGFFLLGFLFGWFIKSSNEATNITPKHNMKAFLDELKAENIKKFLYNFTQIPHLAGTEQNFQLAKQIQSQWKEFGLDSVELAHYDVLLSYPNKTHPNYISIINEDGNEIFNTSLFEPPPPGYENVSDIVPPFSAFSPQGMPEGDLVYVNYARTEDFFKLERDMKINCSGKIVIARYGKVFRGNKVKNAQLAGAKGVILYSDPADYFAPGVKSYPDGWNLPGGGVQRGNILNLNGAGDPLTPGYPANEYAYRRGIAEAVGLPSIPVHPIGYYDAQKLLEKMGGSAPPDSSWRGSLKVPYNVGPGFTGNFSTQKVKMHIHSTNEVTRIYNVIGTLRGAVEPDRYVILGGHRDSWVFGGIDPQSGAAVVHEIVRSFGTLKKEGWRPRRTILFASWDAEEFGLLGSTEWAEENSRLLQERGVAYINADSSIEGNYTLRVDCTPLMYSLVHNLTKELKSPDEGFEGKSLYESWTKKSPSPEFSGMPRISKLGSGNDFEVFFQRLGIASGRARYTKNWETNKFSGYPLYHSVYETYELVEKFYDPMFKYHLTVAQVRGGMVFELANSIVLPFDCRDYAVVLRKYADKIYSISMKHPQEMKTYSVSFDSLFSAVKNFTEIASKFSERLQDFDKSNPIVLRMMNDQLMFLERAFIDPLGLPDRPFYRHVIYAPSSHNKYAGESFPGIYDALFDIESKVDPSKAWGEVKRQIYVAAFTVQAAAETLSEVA

[3] = biological target: human serum albumin (HSA) (Homo sapiens, UniProt P02768); assay: HSA binding by HPLC on a column with immobilized human albumin; details: natGa- and natLu-labeled inhibitors; HPLC retention time with non-linear regression calibration on nine reference substances
Sequence of human serum albumin (HSA) (P02768 25-609): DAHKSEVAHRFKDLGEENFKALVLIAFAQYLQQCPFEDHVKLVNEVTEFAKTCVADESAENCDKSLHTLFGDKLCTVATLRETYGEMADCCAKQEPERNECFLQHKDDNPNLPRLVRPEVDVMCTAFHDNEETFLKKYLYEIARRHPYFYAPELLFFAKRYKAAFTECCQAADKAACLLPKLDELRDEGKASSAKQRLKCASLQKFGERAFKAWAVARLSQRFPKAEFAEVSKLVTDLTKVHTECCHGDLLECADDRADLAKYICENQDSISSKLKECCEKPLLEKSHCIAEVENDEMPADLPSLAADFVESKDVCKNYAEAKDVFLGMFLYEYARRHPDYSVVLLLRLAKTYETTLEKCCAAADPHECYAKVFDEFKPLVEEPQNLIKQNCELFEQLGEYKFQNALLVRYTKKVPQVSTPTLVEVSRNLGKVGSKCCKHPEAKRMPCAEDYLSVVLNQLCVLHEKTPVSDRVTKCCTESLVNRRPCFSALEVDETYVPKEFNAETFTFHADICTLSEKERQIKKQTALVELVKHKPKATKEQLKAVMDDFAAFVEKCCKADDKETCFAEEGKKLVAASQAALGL
Source text: The Fmoc-(9-fluorenylmethoxycarbonyl-) and all other protected amino acid analogs were purchased from Bachem (Bubendorf, Switzerland) or Iris Biotech (Marktredwitz, Germany). Dr. Schottelius from the laboratory of Prof. […] The tritylchloride polystyrene (TCP) resin was obtained from PepChem (Tubingen, Germany). Chematech (Dijon, France) delivered the chelator DOTAGA-anhydride. All necessary solvents and other organic reagents were purchased from either Alfa Aesar (Karlsruhe, Germany), Sigma-Aldrich (Munich, Germany) or VWR (Darmstadt, Germany). Solid phase synthesis of the peptides was carried out by manual operation using an Intelli-Mixer syringe shaker (Neolab, Heidelberg, Germany). […] Analysis of the peptides was performed by applying different gradients of 0.1% (v/v) trifluoroacetic acid (TFA) in H2O (solvent A) and 0.1% TFA (v/v) in acetonitrile (MeCN) (solvent B) with a constant flow of 1 mL/min (specific gradients are cited in the text). […] Human serum albumin (HSA) binding was determined using a Chiralpak HSA 50 x 3 mm 5µm Analytical Column connected to a Chiralpak HSA 10 x 3 mm 5µm Guard Cartridge (Daicel Chemical Industries) purchased from Chiral Technologies Europe (France). Non-linear regression for the HSA binding was performed using OriginPro 2016G. Both retention times tR as well as the capacity factors K' are cited in the text. Preparative RP-HPLC of the peptides was achieved on a Shimadzu HPLC system using a Multospher 100 RP 18-5 (250 x 20 mm) column (CS GmbH, Langerwehe, Germany) with a constant flow of 5 mL/min. […] Radioactivity was detected through connection of the outlet of the UV-photometer to a Nal(TI) well-type scintillation counter from EG&G Ortec (Munich, Germany). […] ESI-mass spectra were acquired on an expression^L CMS mass spectrometer (Advion Ltd., Harlow, UK) and on a Varian 500-MS IT mass spectrometer (Agilent Technologies, Santa Clara, USA). For the HSA binding experiment a Chiralpak HSA 50 x 3 mm 5µm Analytical Column, (Daicel Chemical Industries, LTD) connected to a Chiralpak HSA 10 x 3 mm 5µm Guard Cartridge (Daicel Chemical Industries; Chiral Technologies Europe) was used. Blood samples were collected from volunteers.
The mobile phase consisted of a binary gradient system with a constant total flow rate of 0.5mL/min. Mobile phase A was a 50 mM pH 6.9 ammonium acetate solution, mobile phase B was 2-Propanol (HPLC grade, VWR, Germany). The gradient, of mobile phase A was 100% from 0 to 3 min and from 3 min to the end of each run, mobile phase B was set 20%. […] Afterwards, the actual PSMA inhibitors with unknown HSA binding were measured. More details are found in the supplementary info.
To diminish the influence of temperature and small pH fluctuations of the NH4OAc buffer on binding (retention time), a set of nine substances with known HSA binding coefficients was used to establish a calibration line by non-linear regression (log retention time vs. log HSA [%] binding).

LNCaP tumor xenografts = assay: µPET imaging in mice bearing LNCaP tumor xenografts; details: 85 min p.i.; dynamic µPET; LNCaP xenograft
Method: For the tumor model, LNCaP cells (approx. 10^7 cells) were suspended 1:1 in serum-free DMEM-F12 medium and Matrigel (BD Biosciences, Germany) and inoculated onto the right shoulder of male, 6 to 8 weeks old CB-17 SCID mice (Charles River Laboratories, Sulzfeld, Germany). Animals were used after the tumor size reached 4 to 8 mm in diameter for experiments.
Imaging experiments were conducted using a Siemens Inveon small animal PET and data analyzed by the associated Inveon Research Workplace software. […] Dynamic imaging was carried out after on-bed injection for 90 min. The static blockade image was obtained, after 1 h p.i. with 15 min acquisition time. Blockade was done by coinjection of 8mg/kg of PMPA. All images were reconstructed using an OSEM3D algorithm without scanner and attenuation correction.
Over a period of 90 min, comparative dynamic µPET scans were performed with ^68Ga-13 and ^68Ga-18 in CB-17 SCID mice bearing LNCaP tumor xenografts to assess the kinetic tissue distribution.

LNCaP cells [4] = details: PSMA I&T (18), data from a previous publication (Weineisen 2014), normalized to ([125I]I-BA)KuE, 60 min, cited from earlier work
PSMA [5] = biological target: T1, PSMA; assay: competitive binding assay (IC50) on LNCaP cells with ([125I]I-BA)KuE as radioligand; details: LNCaP cells (150,000/well); ([125I]I-BA)KuE (c = 0.2 nM) as radioligand; HBSS (1% BSA), 4°C, 1 h; natGa or natLu analogs; mean ± SD (n = 3)
Method: One day (24h ± 2h) prior to all experiments with LNCaP cells, the cultivated cells were harvested using a mixture of trypsin/ethylendiaminetetraacetate (0.05%/ 0.02%) and phosphate buffered saline and centrifuged. After centrifugation, the supernatant was disposed and the cell pellet resuspended in culture medium. Afterwards, cells were counted with a hemocytometer (Neubauer) and seeded in 24-well plates.
Cells were incubated in HBSS (1% BSA) at 4°C for 1 h.

[6] = lipophilicity (logP), shake flask method; assay type: physicochemical; details: n-octanol and PBS (pH 7.4); radiolabeled compounds; mean ± SD (n = 6)
Method: The logP values were determined as described (Weineisen, M., et al., Synthesis and preclinical evaluation of DOTAGA-conjugated PSMA ligands for functional imaging and endoradiotherapy of prostate cancer. EJNMMI research, 2014. 4(1): p. 1). The experimental details are described in the supplementary info.
The determination of the logP was used to assess lipophilicity. The values for the respective radiolabeled compounds from Table 2 were obtained using the shake flask method (n = 6) in n-octanol and PBS (pH 7.4). […] For all compounds, the respective ^177Lu-labeled analog was more lipophilic than the ^68Ga-labeled counterpart.

Method for human blood samples: Separation of the different blood cells was accomplished by stepwise centrifugation. Erythrocytes were gained after centrifugation at 700 g (1,400 rpm, Biofuge 15, Heraus Sepatech, Osterode, Germany) for 5 min and the pellet was rinsed with 500 µL of ice-cold PBS and again centrifuged. Leukocytes were gained by combination of the supernatant and subsequent centrifugation at 3,100 g (6,200 rpm) with a further washing step with 500 µL of ice-cold PBS and repeated centrifugation. The activities of the pellets (erythrocytes and leukocytes) and the supernatant were measured in a γ-counter. PSMA specific binding was determined by co-incubation with PMPA solution (100 µM).
In addition, 1.0 MBq of the used radiolabeled PSMA ligands were incubated in the presence of PMPA solution (100 µM) to differentiate between specific and unspecific binding.

Substance | Internalization [%] (LNCaP cells [1]) | HSA [%] [3] [%] | IC50 (PSMA [5]) [nM] | logP [6] | other results
PSMA I&T Galactose [compound 13] | 18.7% ± 4.1% | – | – | – | –
[^68Ga]PSMA I&T [^nat/68Ga-18] | – | 48.7 | – | – | IC50 (PSMA [2]): 9.4 ± 2.9 nM; tumor accumulation (LNCaP tumor xenografts): 5.8 ± 0.3 %ID/mL; Internalization [%] (LNCaP cells [4]): 59.2 ± 1.7%; Internalization [%] (LNCaP cells [4]; listed as [^68Ga]PSMA I&T): 59.2% ± 1.7%
[^177Lu]PSMA I&T [^nat/177Lu-18] | – | 78.6 | – | – | IC50 (PSMA [2]): 7.9 ± 2.4 nM; Binding to erythrocytes (human blood samples; simultaneous incubation with PMPA (100 µM)): 29.2%; leukocyte fraction (human blood samples; with PMPA (100 µM)): 0.2%; supernatant (human blood samples; with PMPA (100 µM)): 70.7%; Binding to erythrocytes (human blood samples; without PMPA): 38.9%; leukocyte fraction (human blood samples; without PMPA): 0.1%; supernatant (human blood samples; without PMPA): 61.1%; Internalization [%] (LNCaP cells [4]): 75.5 ± 1.6%
[^natGa]PSMA I&T Cellubiose [^nat/68Ga-15] | 4.0 ± 0.6% | – | 10.8 ± 1.7 | – | internalized fraction of total applied activity (LNCaP cells [1]): 1.3%
[^natGa]PSMA I&T Galactose [^nat/68Ga-13] | 18.7 ± 4.1% | 7.7 | – | -4.15 ± 0.07 | –
[^natGa]PSMA I&T Mannose [^nat/68Ga-14] | 8.4 ± 0.2% | – | 7.1 ± 0.3 | -4.01 ± 0.08 | –
[^natLu]PSMA I&T Cellobiose [^nat/177Lu-15] | 22.3 ± 1.2% | 19.9 | 12.5 ± 2.3 | -4.04 ± 0.1 | –
[^natLu]PSMA I&T Galactose [^nat/177Lu-13] | 60.2 ± 2.8% | 23.3 | 5.8 ± 0.6 | -3.95 ± 0.12 | internalized fraction of total applied activity (LNCaP cells [1]): 11.3%
[^natLu]PSMA I&T Mannose [^nat/177Lu-14] | 35.3 ± 2.9% | – | 5.9 ± 0.5 | -3.85 ± 0.04 | –
